Assay results reported in patent US11229635B2, “Method of treating fibrosis” (BCN Biosciences L.L.C., priority 2016, dated 2022).

Experiments:
immature myeloid cells = assay: Immature myeloid cells after WBI and WTLI; assay type: in vivo
Excerpt: 2. […] They co-express CD11b, Ly6G, and Ly6C, and are required for mitigation by BCN-512, at least after WBI.

[1] = Pharmacokinetic profile after sc injection; assay type: in vivo; settings: mouse, plasma; C57BL/6 male mice, 10 mg/kg sc, low % deoxycholate formulation
Experimental: FIG. 6A: Pharmacokinetic profile for C57BL/6 male mice receiving a 10 mg/kg sc injection of 512 in a low % deoxycholate formulation.
Because the side effects of Cremophor are undesirable for an MCM candidate, alternative formulations are being tested for further development of 512 for the lung DEARE indication.

[2] = tested on: canonical Wnt-β catenin signaling; assay: TCF/LEF luciferase reporter assay in HEK293 cells; assay type: cell-based; settings: 28 μM, 24 h, vs vehicle treated cells
Experimental: LiCl (10 mM) treatment was used as positive control for luciferase activity. Luciferase activity was determined after 24 h using a Dual-Luciferase® Reporter Assay System (Promega) as per manufacturer's protocol. HEK293 cells containing a FOPFlash construct were used as a negative control.

[3] = tested on: macrophages co-cultured with fibroblasts; assay: Macrophage-fibroblast co-culture, CFSE proliferation; assay type: cell-based, mouse
Excerpt: Cell proliferation was used as a sensitive in vitro endpoint because it can also be used to detect cell death. Cells were labeled with the fluorescent dye CF SE, which becomes diluted as the cells proliferate over time. We performed a series of experiments using tumor cell lines to validate the assay and determine the effective ratios of macrophages to target cells (not shown) before performing experiments with normal early-pass murine embryo fibroblasts. To study the effects of BCN-512 and macrophages on fibroblast cell proliferation and death, irradiated (2 or 6 Gy) macrophages and fibroblasts were added at various ratios. Normal mouse fibroblasts were labelled with CF SE and added to the macrophages in 96-well plates. BCN-512 (10 μM) and/or LPS (1 μg/mL) or diluent were then added, and the plates cultured for 1, 2, or 3 days. The purpose of the LPS was to activate the macrophages. BCN-512 was added 1 hour after LPS, which was added immediately after irradiation

[4] = tested on: radiation-induced pneumonitis and lung fibrosis; assay: Thoracic lung irradiation: survival, lung histology, fibrosis; assay type: in vivo, mouse
Experimental: Our goal is to develop a drug to protect lung from ionizing radiation that is administered subcutaneously and has a favorable risk/benefit profile when administered 24 hours or later after radiation exposure. The drug, BCN 512, originally discovered in the UCLA CMCR, is a novel drug that emerged from high-throughput screening of small molecule libraries, and is now under investigation as a radiation injury mitigator. In our efforts to develop the drug as a lung MCM to treat the Delayed Effects of Acute Radiation Exposure (DEARE), we use the C57BL/6 and C3H mouse models. These models appear to recapitulate human lung fibrosis and pneumonitis, respectively, based upon the distinct sensitivity of the two strains (1, 2).
Radiation fibrosis is a progressive, dose-related, late complication of radiation exposure, with animals and humans surviving for some time with non-lethal damage. […] 512 works by altering the inflammatory infiltrate into the lung.
A: Lung histology of C57BL/6 mice receiving local thoracic radiation (radiation of the lung area) presenting a focal area of increased cellularity and edema on the upper left quadrant. Adjacent to this is increased cellularity (the lacey patterning). The lower right quadrant, emphysema is present with large clear areas indicating where alveoli have collapsed to present large open areas. B. Histopathology of C57BL/6 mouse lung under identical radiation treatment as A, but also treated with 5 mg/kg BCN512 once per day every 24 hours for 5 doses.
In both lobes, significant collapse of alveoli can be seen along with hyper cellularity (dark areas) and pronounced emphysema (large open areas) presenting fibrosis. C, D are separate lobes from the same animal treated identically as above but receiving BCN512 at 5 mg/kg daily for 5 days after 14.5Gy local thoracic radiation.

Lewis lung (LLC) tumors = assay: Lewis lung (LLC) artificial metastasis model, lung tumor colonies; assay type: in vivo, C57Bl/6 and C3H mice
Experimental: One of the major concerns of the Food and Drug Administration for the application of radiation mitigators in RT is that if an agent can protect normal tissue from radiation damage, it may also protect tumor tissues. […] The syngeneic model of artificial metastasis used Lewis lung (LLC) tumors, and since LLC also grow in C3H mice, this could be employed as an allogeneic model. C57B1/6 and C3H mice were injected i.v. with 5×10^4 tumor cells. Subcutaneous drug injections were started on day +3 when the tumors were established in the lung in order to bias the experiment in favor of tumor growth promotion. The dose regimen was arbitrarily assigned to a dose of 20 mg/kg for 5 days. LTI was started on day 4, with 4 Gy doses administered daily for 3 days. This is higher than conventional 2 Gy to compensate for the more rapid growth of murine tumors, but is still well within the range used clinically in hypofractionated therapy.

[5] = tested on: bone marrow hematopoietic stem cells (HSCs); assay: Total body irradiation survival (hematopoietic suppression); assay type: in vivo, C3H/HeN mice
Experimental: FIG. 8A-C: (A) Kaplan Meier Plot of Male C3H/HeN mice 7.75Gy 30 Day TBI (n=30) 50 mg/kg BCN057. (B). Kaplan Meier Plot of Female C3H/HeN mice 7.75Gy 30 Day TBI (n=10) 25 mg/kg BCN057. (C) Cytokine Profile in Plasma Male C3H/HeN mice 7.75Gy TBI Day 8 receiving BCN057.
7.75 Gy radiation is used to ablate bone marrow hematopoietic stem cells (HSCs) in these strains of mice. […] Lethality from bone marrow suppression occurs in the 14-25 day region due to the life cycle of approximately 2 weeks for RBC and inability to replace them without HSCs
7.73 Gy radiation is used to ablate bone marrow HSCs in the C3H strain of mice.

## O=[N+]([O-])c1ccc(S(=O)(=O)N2CCN(c3ccccc3)CC2)cc1 [BCN512, 1-[(4-nitrobenezene)sulfonyl]-4-phenyl piperazine]
Immature myeloid cells
  number of immature myeloid cells (CD11b, Ly6G, Ly6C): greatly increases
[1]
  Cmax: 132 ng/mL
  Tmax: 2 h
[2]
  luciferase activity: significantly increased luciferase activity
[3]; 10 μM, LPS 1 μg/mL, ratios of 20:1 or 25:1
  toxicity of LPS-treated macrophages to fibroblasts: practically abolished the toxicity associated with LPS treatment
[3]; 6 Gy macrophage irradiation, 3 days
  increase of viable fibroblasts by irradiated macrophages: seemed to neutralize this function
[4]; 14.5Gy local thoracic radiation, 5 mg/kg daily for 5 days, Day 120
  lung fibrosis histology: Absent are the large lesions and pronounced fibrosis
[4]; 18 Gy whole thoracic lung irradiation, 5 mg/Kg sc in Cremophor days 1-5, at 90 days and 160
  overall survival from pneumonitis and lung fibrosis: improved overall survival
[4]; C57BL/6 mice, 14.5Gy local thoracic radiation, 5 mg/kg once per day for 5 doses
  lung histopathology: Lung tissue is normal with no evident emphysema or edema or hyper cellularity or immune infiltrate
[4]; after 14 Gy, acute delivery (FIG. 18)
  development of radiation fibrosis (late disease): mitigates against the development of this late disease
[4]; after LTI, day 150
  inflammatory macrophage content and phenotypic markers in the lung: decrease in inflammatory macrophage content and phenotypic markers
[4]; day 160 after LTI
  mature macrophage cell content in lung: greatly decreased
Lewis lung (LLC) tumors; both strains, vs control
  lung tumor colony size: smaller in size than control
Lewis lung (LLC) tumors; day 14, 20 mg/kg sc for 5 days, both C3H and C57 mouse strains, P<0.05
  decrease of the number of lung tumor colonies: 20%
[5]; 7.73 Gy TBI, C3H strain of mice
  lethality from bone marrow suppression: sufficient to prevent lethality from bone marrow suppression
[5]; Deoxycholate formulation, subcutaneously
  efficacy in total body irradiation experiments: good efficacy
